Assay results published in US20090304692A1, “TRIAZINE COMPOUNDS AS PI3 KINASE AND MTOR INHIBITORS” (Wyeth, priority 2008, published 2009).
“And” between values parts separate entries of the source, which are not always exact repeats. Equal values may be shown once. Read-outs that look alike come from different tables or passages of the source.

Assays:
PI3K-γ = PI3K-γ (Homo sapiens, UniProt P48736); assay: PI3K-gamma fluorescence polarization assay; conditions: read-out: IC50 PI3Kγ
Human mTOR (FLAG-TOR) = Human mTOR (FLAG-TOR) (Homo sapiens, UniProt P42345); assay: mTOR kinase assay (DELFIA format, purified enzyme); type: biochemical; conditions: read-out: IC50 mTOR
Chain of Human mTOR (FLAG-TOR) (P42345 1360-2549 limits assumed): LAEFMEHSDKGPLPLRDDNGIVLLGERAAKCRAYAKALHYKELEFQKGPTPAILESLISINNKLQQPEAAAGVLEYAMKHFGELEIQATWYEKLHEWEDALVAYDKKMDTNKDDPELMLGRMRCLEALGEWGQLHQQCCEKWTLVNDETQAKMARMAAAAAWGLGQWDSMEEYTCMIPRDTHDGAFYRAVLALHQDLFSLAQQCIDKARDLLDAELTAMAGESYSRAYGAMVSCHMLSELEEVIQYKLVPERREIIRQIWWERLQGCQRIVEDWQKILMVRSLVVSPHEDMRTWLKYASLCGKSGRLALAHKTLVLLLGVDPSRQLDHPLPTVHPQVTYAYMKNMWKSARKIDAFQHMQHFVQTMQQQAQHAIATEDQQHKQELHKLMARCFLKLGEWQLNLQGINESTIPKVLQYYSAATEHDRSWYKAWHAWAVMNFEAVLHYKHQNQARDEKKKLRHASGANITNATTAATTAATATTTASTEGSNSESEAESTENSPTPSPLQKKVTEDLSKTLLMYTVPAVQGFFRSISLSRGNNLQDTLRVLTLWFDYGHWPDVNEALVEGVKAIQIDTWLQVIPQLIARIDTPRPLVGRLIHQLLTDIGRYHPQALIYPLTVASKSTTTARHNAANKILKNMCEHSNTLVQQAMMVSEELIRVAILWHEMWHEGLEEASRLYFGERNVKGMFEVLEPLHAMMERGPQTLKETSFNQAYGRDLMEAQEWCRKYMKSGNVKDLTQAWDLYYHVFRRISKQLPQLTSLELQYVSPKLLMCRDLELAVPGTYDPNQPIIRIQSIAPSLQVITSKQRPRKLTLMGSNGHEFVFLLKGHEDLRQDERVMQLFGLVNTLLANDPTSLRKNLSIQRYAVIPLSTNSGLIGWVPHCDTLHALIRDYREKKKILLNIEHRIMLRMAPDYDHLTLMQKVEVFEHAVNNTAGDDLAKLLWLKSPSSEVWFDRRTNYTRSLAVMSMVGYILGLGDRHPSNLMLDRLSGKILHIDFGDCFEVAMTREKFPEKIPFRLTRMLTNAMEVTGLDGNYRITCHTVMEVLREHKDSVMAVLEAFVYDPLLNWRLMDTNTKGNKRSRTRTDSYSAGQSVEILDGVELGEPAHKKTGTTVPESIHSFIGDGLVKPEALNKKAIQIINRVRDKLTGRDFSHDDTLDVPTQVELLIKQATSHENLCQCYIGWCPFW

[1] = test system: human breast MDA-MB-361 tumor cell line; assay: In vitro cell culture growth assay (MTS), MDA-MB-361; type: cell-based; conditions: read-out: IC50 MDA-MB-361
PI3K-α = PI3K-α (Homo sapiens, UniProt P42336); assay: PI3K-alpha fluorescence polarization assay; conditions: read-out: IC50 PI3Kα
Chain of PI3K-α (P42336 whole entry, species assumed): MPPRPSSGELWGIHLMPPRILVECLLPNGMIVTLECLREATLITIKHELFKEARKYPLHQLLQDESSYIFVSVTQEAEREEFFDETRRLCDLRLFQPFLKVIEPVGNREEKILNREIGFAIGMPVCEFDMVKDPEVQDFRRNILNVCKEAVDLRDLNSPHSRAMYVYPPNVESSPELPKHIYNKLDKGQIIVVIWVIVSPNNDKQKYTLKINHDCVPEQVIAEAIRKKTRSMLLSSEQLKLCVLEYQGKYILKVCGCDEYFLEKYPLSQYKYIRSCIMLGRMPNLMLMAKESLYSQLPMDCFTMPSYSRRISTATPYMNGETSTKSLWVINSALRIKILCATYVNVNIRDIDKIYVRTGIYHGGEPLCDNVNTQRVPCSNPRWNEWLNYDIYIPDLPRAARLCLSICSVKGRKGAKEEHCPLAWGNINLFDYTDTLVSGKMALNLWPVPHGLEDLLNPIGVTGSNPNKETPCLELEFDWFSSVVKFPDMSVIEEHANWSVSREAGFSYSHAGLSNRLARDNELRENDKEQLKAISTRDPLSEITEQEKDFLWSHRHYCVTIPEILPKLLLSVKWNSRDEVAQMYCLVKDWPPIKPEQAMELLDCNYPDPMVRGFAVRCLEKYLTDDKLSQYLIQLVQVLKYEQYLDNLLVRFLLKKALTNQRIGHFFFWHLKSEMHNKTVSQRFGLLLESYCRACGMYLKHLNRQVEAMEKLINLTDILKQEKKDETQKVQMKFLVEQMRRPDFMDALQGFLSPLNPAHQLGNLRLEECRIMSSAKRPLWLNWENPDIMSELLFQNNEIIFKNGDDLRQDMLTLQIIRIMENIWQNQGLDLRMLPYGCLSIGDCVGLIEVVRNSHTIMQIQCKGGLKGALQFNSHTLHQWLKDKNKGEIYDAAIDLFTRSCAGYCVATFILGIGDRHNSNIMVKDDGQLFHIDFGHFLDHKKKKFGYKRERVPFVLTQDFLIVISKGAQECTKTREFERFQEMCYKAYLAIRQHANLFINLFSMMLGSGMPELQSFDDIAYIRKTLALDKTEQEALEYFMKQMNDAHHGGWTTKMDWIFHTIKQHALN
Chain of PI3K-α (P27986 whole entry partner, species assumed): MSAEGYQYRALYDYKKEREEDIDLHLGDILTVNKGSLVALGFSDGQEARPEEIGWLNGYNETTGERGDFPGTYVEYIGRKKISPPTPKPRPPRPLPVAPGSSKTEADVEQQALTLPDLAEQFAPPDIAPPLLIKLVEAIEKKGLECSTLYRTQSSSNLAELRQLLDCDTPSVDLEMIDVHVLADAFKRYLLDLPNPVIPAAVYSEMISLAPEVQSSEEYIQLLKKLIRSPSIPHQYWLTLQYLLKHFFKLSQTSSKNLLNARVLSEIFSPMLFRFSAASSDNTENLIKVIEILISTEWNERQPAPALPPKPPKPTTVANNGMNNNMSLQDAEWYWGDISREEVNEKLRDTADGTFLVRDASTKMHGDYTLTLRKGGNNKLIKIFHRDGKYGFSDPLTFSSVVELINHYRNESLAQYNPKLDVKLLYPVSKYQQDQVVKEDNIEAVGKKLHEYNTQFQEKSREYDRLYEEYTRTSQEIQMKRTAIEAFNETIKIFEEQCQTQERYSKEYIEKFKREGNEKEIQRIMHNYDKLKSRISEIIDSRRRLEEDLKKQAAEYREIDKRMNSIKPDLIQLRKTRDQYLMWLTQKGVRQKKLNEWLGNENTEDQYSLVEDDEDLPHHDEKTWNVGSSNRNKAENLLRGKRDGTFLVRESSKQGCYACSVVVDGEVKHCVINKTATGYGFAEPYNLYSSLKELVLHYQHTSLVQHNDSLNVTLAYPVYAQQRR

[2] = test system: human prostate PC3-mm2 tumor cell line; assay: In vitro cell culture growth assay (MTS), PC3-mm2; type: cell-based
[3] = MTS cell growth assay, three days after drug treatment, MDA-MB-361 cells
[4] = MTS cell growth assay, three days after drug treatment, PC3-mm2 cells, read-out: IC50 PC3-mm2
[5] = Homo sapiens, PC3MM2, 72 h, MTS cell growth assay, three days after drug treatment, read-out: IC50 PC3-mm2
[6] = Homo sapiens, PC3MM2, 72 h, read-out: IC50 PC3-mm2
[7] = Homo sapiens, PC3MM2, 72 h, MTS cell growth assay, three days after drug treatment, PC3-mm2 cells, read-out: IC50 PC3-mm2

Chain of PI3K-γ (P48736 whole entry, species assumed): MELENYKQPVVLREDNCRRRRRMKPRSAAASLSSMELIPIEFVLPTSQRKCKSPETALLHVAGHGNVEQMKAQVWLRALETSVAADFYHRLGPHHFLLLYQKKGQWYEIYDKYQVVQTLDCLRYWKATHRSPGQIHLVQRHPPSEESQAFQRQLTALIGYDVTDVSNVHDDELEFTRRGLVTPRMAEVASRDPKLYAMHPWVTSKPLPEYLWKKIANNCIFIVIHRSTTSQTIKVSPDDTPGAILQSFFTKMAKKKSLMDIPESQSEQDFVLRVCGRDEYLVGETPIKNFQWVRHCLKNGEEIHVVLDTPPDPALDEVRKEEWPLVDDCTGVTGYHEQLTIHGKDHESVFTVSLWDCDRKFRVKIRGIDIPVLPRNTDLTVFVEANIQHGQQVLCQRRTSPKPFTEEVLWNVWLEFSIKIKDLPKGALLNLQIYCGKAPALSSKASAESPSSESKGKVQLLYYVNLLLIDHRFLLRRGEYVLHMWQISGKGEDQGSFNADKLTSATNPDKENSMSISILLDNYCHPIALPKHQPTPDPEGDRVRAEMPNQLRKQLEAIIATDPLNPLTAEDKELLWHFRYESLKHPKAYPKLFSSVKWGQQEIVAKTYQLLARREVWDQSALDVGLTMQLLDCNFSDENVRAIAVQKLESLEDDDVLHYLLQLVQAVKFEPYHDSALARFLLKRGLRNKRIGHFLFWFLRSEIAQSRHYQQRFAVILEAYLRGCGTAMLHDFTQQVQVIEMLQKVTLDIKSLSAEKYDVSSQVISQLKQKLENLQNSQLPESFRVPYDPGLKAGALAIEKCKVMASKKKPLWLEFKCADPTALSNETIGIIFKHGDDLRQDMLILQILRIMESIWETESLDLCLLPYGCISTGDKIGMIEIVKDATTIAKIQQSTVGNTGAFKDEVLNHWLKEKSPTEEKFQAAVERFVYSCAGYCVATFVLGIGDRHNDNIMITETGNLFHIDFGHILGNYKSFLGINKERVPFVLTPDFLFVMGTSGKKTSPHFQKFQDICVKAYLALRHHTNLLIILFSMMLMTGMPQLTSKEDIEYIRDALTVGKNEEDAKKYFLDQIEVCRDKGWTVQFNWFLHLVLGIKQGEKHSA

Molecule | IC50 (PI3K-γ) [nM] | IC50 (Human mTOR (FLAG-TOR)) | IC50 (PI3K-α) [nM] | IC50 [2, 5] [nM] | other results
1-(4-{[4-(dimethylamino)piperidin-1-yl]carbonyl}phenyl)-3-[4-(4-morpholin-4-yl-6-phenyl-1,3,5-triazin-2-yl)phenyl]urea [Example 544] | 20.5 | 17 nM | 3.5 | – | IC50 [1, 3]: 58 nM
1-(4-{[(3S)-3-(dimethylamino)pyrrolidin-1-yl]carbonyl}phenyl)-3-{4-[4-morpholin- [Example 517] | 18.5 | 1.06 nM | 3.4 | – | IC50 [2, 4]: 7 nM
4-{[(4-{4-morpholin-4-yl-6-[(3S)-tetrahydrofuran-3-yloxy]-1,3,5-triazin-2-yl}phenyl)carbamoyl]amino}-N-(2-pyrrolidin-1-ylethyl)benzamide [Example 521] | – | – | 1.4 | – | IC50 [2, 4]: 27 nM; IC50 [1, 3]: 8 nM
CNC(=O)c1ccc(NC(=O)Nc2ccc(-c3nc(N4CCOCC4)nc(N4CCOCC4)n3)cc2)cc1 [Example 70, 4-(3-(4-(4,6-dimorpholino-1,3,5-triazin-2-yl)phenyl)ureido)-N-methylbenzamide] | – | 0.7 nM | – | – | IC50 ([2]; Homo sapiens, PC3MM2, 72 h, read-out: IC50 PC3-mm2, MTS cell growth assay, three days after drug treatment): 24 nM
O=C(Nc1ccncc1)Nc1ccc(-c2nc(N3CCCCC3)nc(N3CC4CCC(C3)O4)n2)cc1 [Example 79, 1-(4-(4-(8-oxa-3-azabicyclo[3.2.1]octan-3-yl)-6-(piperidin-1-yl)-1,3,5-triazin-2-yl)phenyl)-3-(pyridin-4-yl)urea] | 193 | 5.1 nM | 773 | 320 | –
CNCCN(C)C(=O)c1ccc(NC(=O)Nc2ccc(-c3nc(OC)nc(N4CCOCC4)n3)cc2)cc1 [Example 245, 4-({[4-(4-methoxy-6-morpholin-4-yl-1,3,5-triazin-2-yl)phenyl]carbamoyl}amino)-N-methyl-N-[2-(methylamino)ethyl]benzamide] | – | – | 1 | – | IC50 [2, 6]: 374 nM; IC50 ([1]; Homo sapiens, MDA-MB-361, 72 h): 110 nM; IC50 (PI3K-α; listed as 722): 0.8 nM
COc1nc(-c2ccc(NC(=O)Nc3ccc(C(=O)N4CCN(C)CC4)cc3)cc2)nc(N2CCOCC2)n1 [Example 246, 1-[4-(4-methoxy-6-morpholin-4-yl-1,3,5-triazin-2-yl)phenyl]-3-{4-[(4-methylpiperazin-1-yl)carbonyl]phenyl}urea] | – | – | – | – | IC50 [2, 6]: 91 nM; IC50 ([1]; Homo sapiens, MDA-MB-361, 72 h): 35 nM
COc1nc(-c2ccc(NC(=O)Nc3ccc(C(=O)N4CCNC(C)(C)C4)cc3)cc2)nc(N2CCOCC2)n1 [Example 247, 1-{4-[(3,3-dimethylpiperazin-1-yl)carbonyl]phenyl}-3-[4-(4-methoxy-6-morpholin-4-yl-1,3,5-triazin-2-yl)phenyl]urea] | – | – | 2 | – | IC50 [2, 6]: 111 nM; IC50 ([1]; Homo sapiens, MDA-MB-361, 72 h): 30 nM; IC50 (PI3K-α; listed as 724): 1.5 nM
COc1nc(-c2ccc(NC(=O)Nc3ccc(C(=O)NCCN4CCCCC4)cc3)cc2)nc(N2CCOCC2)n1 [Example 248, 4-({[4-(4-methoxy-6-morpholin-4-yl-1,3,5-triazin-2-yl)phenyl]carbamoyl}amino)-N-(2-piperidin-1-ylethyl)benzamide] | – | – | 2 | – | IC50 [2, 6]: 69 nM; IC50 ([1]; Homo sapiens, MDA-MB-361, 72 h): < 31 nM
O=C(Nc1ccc(C(=O)N2CCC(N3CCCCC3)CC2)cc1)Nc1ccc(-c2nc(N3CCOCC3)nc(N3C4CCC3COC4)n2)cc1 [Example 760, 1-[4-(1,4′-bipiperidin-1′-ylcarbonyl)phenyl]-3-{4-[4-morpholin-4-yl-6-(3-oxa-8-azabicyclo[3.2.1]oct-8-yl)-1,3,5-triazin-2-yl]phenyl}urea] | 28.3 | 0.21 nM | 4.3 | – | IC50 [2, 7]: 4 nM
O=C(Nc1ccncc1)Nc1ccc(-c2nc(N3CCOCC3)nc(N3CC4CCC3CO4)n2)cc1 (centres unmarked) [Example 807, 1-{4-[4-morpholin-4-yl-6-(2-oxa-5-azabicyclo[2.2.2]oct-5-yl)-1,3,5-triazin-2-yl]phenyl}-3-pyridin-4-ylurea] | – | – | – | – | IC50 ([2]; Homo sapiens, PC3MM2, 72 h, PC3-mm2 cells, MTS, three days after drug treatment, read-out: IC50 PC3-mm2): 37 nM; IC50 ([1]; Homo sapiens, 72 h, MDA-MB-361 cells, MTS, three days after drug treatment): 35 nM
N-[2-(dimethylamino)ethyl]-4-({[4-(4-morpholin-4-yl-6-piperidin-1-yl-1,3,5-triazin-2-yl)phenyl]carbamoyl}amino)benzamide [Example 601] | 57.5 | 3 nM | 3.5 | – | IC50 [2, 4]: 155 nM

The next lines start with results.

IC50 (PI3K-γ) [nM] | IC50 (Human mTOR (FLAG-TOR)) | IC50 (PI3K-α) [nM] | IC50 [2, 5] [nM] | Molecule | other results
2120 | 7.15 nM | 851 | 320 | O=C(Nc1ccncc1)Nc1ccc(-c2nc(N3CCCC3)nc(N3CC4CCC(C3)O4)n2)cc1 [Example 80, 1-(4-(4-(8-oxa-3-azabicyclo[3.2.1]octan-3-yl)-6-(pyrrolidin-1-yl)-1,3,5-triazin-2-yl)phenyl)-3-(pyridin-4-yl)urea] | –
8120 | 7 nM | 0.6 | 14 | O=C(Nc1ccc(C(=O)NCCN2CCCCC2)cc1)Nc1ccc(-c2nc(N3CCOCC3)nc(N3CCOCC3)n2)cc1 [Example 151, 4-({[4-(4,6-dimorpholin-4-yl-1,3,5-triazin-2-yl)phenyl]carbamoyl}amino)-N-(2-piperidin-1-ylethyl)benzamide] | –
– | 0.68 nM | 0.8 | 10 | CN(C)C1CCN(C(=O)c2ccc(NC(=O)Nc3ccc(-c4nc(N5CCOCC5)nc(N5CCOCC5)n4)cc3)cc2)C1 (centres unmarked) [Example 167, 1-(4-{[3-(dimethylamino)pyrrolidin-1-yl]carbonyl}phenyl)-3-[4-(4,6-dimorpholin-4-yl-1,3,5-triazin-2-yl)phenyl]urea] | –
33 | 2 nM | 2 | 43 | CCCCc1nc(-c2ccc(NC(=O)Nc3ccc(C(=O)N(C)CCN(C)C)cc3)cc2)nc(N2CCOCC2)n1 [Example 198, 4-({[4-(4-butyl-6-morpholin-4-yl-1,3,5-triazin-2-yl)phenyl]carbamoyl}amino)-N-[2-(dimethylamino)ethyl]-N-methylbenzamide] | –
21 | 6 nM | 2 | 65 | CCc1nc(-c2ccc(NC(=O)Nc3ccc(C(=O)Nc4ccc(N5CCN(C)CC5)cc4)cc3)cc2)nc(N2CCOCC2)n1 [Example 251, 4-({[4-(4-ethyl-6-morpholin-4-yl-1,3,5-triazin-2-yl)phenyl]carbamoyl}amino)-N-[4-(4-methylpiperazin-1-yl)phenyl]benzamide] | –
140 | 80 nM | 6 | 144 | CCCCc1nc(-c2ccc(NC(=O)Nc3ccc(C(=O)Nc4ccc(OCCN(C)C)cc4)cc3)cc2)nc(N2CCOCC2)n1 [Example 269, 4-({[4-(4-butyl-6-morpholin-4-yl-1,3,5-triazin-2-yl)phenyl]carbamoyl}amino)-N-{4-[2-(dimethylamino)ethoxy]phenyl}benzamide] | –
– | 2.5 nM and 4.5 nM | 2 | 39.3 | CC(C)c1nc(-c2ccc(NC(=O)Nc3ccc(C(=O)N4CCN(C)CC4)cc3)cc2)nc(N2CCOCC2)n1 [Example 304, 1-{4-[4-(1-methylethyl)-6-morpholin-4-yl-1,3,5-triazin-2-yl]phenyl}-3-{4-[(4-methylpiperazin-1-yl)carbonyl]phenyl}urea] | IC50 [2, 7]: 39.3 nM; IC50 (PI3K-α; listed as 486): 1.1 nM
30 | 2.8 nM | 3 | 362 | CC(C)c1nc(-c2ccc(NC(=O)Nc3ccc(C(=O)NC4CN(C)C4)cc3)cc2)nc(N2CCOCC2)n1 [Example 307, N-(1-methylazetidin-3-yl)-4-[({4-[4-(1-methylethyl)-6-morpholin-4-yl-1,3,5-triazin-2-yl]phenyl}carbamoyl)amino]benzamide] | –
32 | 7 nM | 2.9 | 77 | CC(C)Cc1nc(-c2ccc(NC(=O)Nc3ccc(C(=O)N4CCC(N(C)C)CC4)cc3)cc2)nc(N2CCOCC2)n1 [Example 323, 1-(4-{[4-(dimethylamino)piperidin-1-yl]carbonyl}phenyl)-3-{4-[4-(2-methylpropyl)-6-morpholin-4-yl-1,3,5-triazin-2-yl]phenyl}urea] | –
10 | 1.09 nM | 0.4 | – | CN(C)CCN(C)C(=O)Nc1ccc(NC(=O)Nc2ccc(-c3nc(N4CCOCC4)nc(N4CCOCC4)n3)cc2)cc1 [Example 500, 1-[2-(dimethylamino)ethyl]-3-[4-({[4-(4,6-dimorpholin-4-yl-1,3,5-triazin-2-yl)phenyl]carbamoyl}amino)phenyl]-1-methylurea] | IC50 ([1]; Homo sapiens, 72 h, MTS cell growth assay, three days after drug treatment, MDA-MB-361 cells): 1 nM
– | 10 nM | 3.5 | – | CN(C)C1CCN(C(=O)c2ccc(NC(=O)Nc3ccc(-c4nc(-c5cccs5)nc(N5CCOCC5)n4)cc3)cc2)CC1 [Example 568, 1-(4-{[4-(dimethylamino)piperidin-1-yl]carbonyl}phenyl)-3-{4-[4-morpholin-4-yl-6-(2-thienyl)-1,3,5-triazin-2-yl]phenyl}urea] | IC50 [2, 7]: 107 nM
